{"source": "patent US20130005747A1", "about": "“METHOD FOR SELECTING A CANCER THERAPY” (Cyclacel Limited, priority 2010, published 2013)", "test_in_all_cases": "Fractional growth, 72 h seliciclib", "format_in_all_cases": "cell-based, human", "key": {"[1]": {"tested_on": "Saos-2", "details": "Saos-2 (Bone), 15 μM seliciclib", "source_text": "(§1) A total of 270 human cancer cell lines from diverse cancer histopathologic types were investigated."}, "[2]": {"tested_on": "SW 1573", "details": "SW 1573 (Lung: NSCLC), 15 μM seliciclib", "source_text": "as §1"}, "[3]": {"tested_on": "A-204", "details": "A-204 (Muscle), 15 μM seliciclib", "source_text": "as §1"}, "[4]": {"tested_on": "NCI-H2122", "details": "NCI-H2122 (Lung: NSCLC), 15 μM seliciclib", "source_text": "as §1"}, "[5]": {"tested_on": "SCCH-196", "details": "SCCH-196 (Miscellaneous), 15 μM seliciclib", "source_text": "as §1"}, "[6]": {"tested_on": "SISO", "details": "SISO (Cervix), 15 μM seliciclib", "source_text": "as §1"}, "[7]": {"tested_on": "HLE", "details": "HLE (Liver), 15 μM seliciclib", "source_text": "as §1"}, "[8]": {"tested_on": "NCI-H520", "details": "NCI-H520 (Lung: NSCLC), 15 μM seliciclib", "source_text": "as §1"}, "[9]": {"tested_on": "SW 780", "details": "SW 780 (Bladder), 15 μM seliciclib", "source_text": "as §1"}, "[10]": {"tested_on": "KYSE-140", "details": "KYSE-140 (Esophagus), 15 μM seliciclib", "source_text": "as §1"}, "[11]": {"tested_on": "BT-549", "details": "BT-549 (Breast), 15 μM seliciclib", "source_text": "as §1"}, "[12]": {"tested_on": "HEC-1", "details": "HEC-1 (Uterus), 15 μM seliciclib", "source_text": "as §1"}, "[13]": {"tested_on": "DK-MG", "details": "DK-MG (Brain), 15 μM seliciclib", "source_text": "as §1"}, "[14]": {"tested_on": "H2052", "details": "H2052 (Lung), 15 μM seliciclib", "source_text": "as §1"}, "[15]": {"tested_on": "786-O", "details": "786-O (Kidney), 15 μM seliciclib", "source_text": "as §1"}, "[16]": {"tested_on": "PCI-6A", "details": "PCI-6A (Head & Neck), 15 μM seliciclib", "source_text": "as §1"}, "[17]": {"tested_on": "HCC38", "details": "HCC38 (Breast), 15 μM seliciclib", "source_text": "as §1"}, "[18]": {"tested_on": "OVCAR-8", "details": "OVCAR-8 (Ovary), 15 μM seliciclib", "source_text": "as §1"}, "[19]": {"tested_on": "GTL-16", "details": "GTL-16 (Stomach), 15 μM seliciclib", "source_text": "as §1"}, "[20]": {"tested_on": "LU65A", "details": "LU65A (Lung: NSCLC), 15 μM seliciclib", "source_text": "as §1"}, "[21]": {"tested_on": "JHU-022", "details": "JHU-022 (Head & Neck), 15 μM seliciclib", "source_text": "as §1"}, "[22]": {"tested_on": "SHP-77", "details": "SHP-77 (Lung), 15 μM seliciclib", "source_text": "as §1"}, "[23]": {"tested_on": "KYSE-450", "details": "KYSE-450 (Esophagus), 15 μM seliciclib", "source_text": "as §1"}, "[24]": {"tested_on": "NCI-H1048", "details": "NCI-H1048 (Lung), 15 μM seliciclib", "source_text": "as §1"}, "[25]": {"tested_on": "JHH-2", "details": "JHH-2 (Liver), 15 μM seliciclib", "source_text": "as §1"}, "[26]": {"tested_on": "NCI-H2452", "details": "NCI-H2452 (Lung), 15 μM seliciclib", "source_text": "as §1"}, "[27]": {"tested_on": "OE21", "details": "OE21 (Esophagus), 15 μM seliciclib", "source_text": "as §1"}, "[28]": {"tested_on": "LS174T", "details": "LS174T (Intestine), 15 μM seliciclib", "source_text": "as §1"}, "[29]": {"tested_on": "SNU-449", "details": "SNU-449 (Liver), 15 μM seliciclib", "source_text": "as §1"}, "[30]": {"tested_on": "A431", "details": "A431 (Skin), 15 μM seliciclib", "source_text": "as §1"}, "[31]": {"tested_on": "JHU-019", "details": "JHU-019 (Head & Neck), 15 μM seliciclib", "source_text": "as §1"}, "[32]": {"tested_on": "ABC-1", "details": "ABC-1 (Lung: NSCLC), 15 μM seliciclib", "source_text": "as §1"}, "[33]": {"tested_on": "COR-L23", "details": "COR-L23 (Lung: NSCLC), 15 μM seliciclib", "source_text": "as §1"}, "[34]": {"tested_on": "A-375", "details": "A-375 (Skin), 15 μM seliciclib", "source_text": "as §1"}, "[35]": {"tested_on": "PCI-15", "details": "PCI-15 (Head & Neck), 15 μM seliciclib", "source_text": "as §1"}, "[36]": {"tested_on": "MGH-MC-1", "details": "MGH-MC-1 (Skin), 15 μM seliciclib", "source_text": "as §1"}, "[37]": {"tested_on": "HPAF-II", "details": "HPAF-II (Pancreas), 15 μM seliciclib", "source_text": "as §1"}}}
{"smiles": "CC[C@H](CO)Nc1nc(NCc2ccccc2)c2ncn(C(C)C)c2n1", "note": "[seliciclib, roscovitine]", "values": [{"measurement": "Fractional Growth", "setting": "[1]", "result": 0.5733}, {"measurement": "Fractional Growth", "setting": "[2]", "result": 0.6076}, {"measurement": "Fractional Growth", "setting": "[3]", "result": 0.2653}, {"measurement": "Fractional Growth", "setting": "[4]", "result": 0.1093}, {"measurement": "Fractional Growth", "setting": "[5]", "result": 0.6177}, {"measurement": "Fractional Growth", "setting": "[6]", "result": 0.6424}, {"measurement": "Fractional Growth", "setting": "[7]", "result": 0.1553}, {"measurement": "Fractional Growth", "setting": "[8]", "result": 0.6863}, {"measurement": "Fractional Growth", "setting": "[9]", "result": 0.3743}, {"measurement": "Fractional Growth", "setting": "[10]", "result": 0.6278}, {"measurement": "Fractional Growth", "setting": "[11]", "result": 0.758}, {"measurement": "Fractional Growth", "setting": "[12]", "result": 0.4632}, {"measurement": "Fractional Growth", "setting": "[13]", "result": 0.8572}, {"measurement": "Fractional Growth", "setting": "[14]", "result": 0.3892}, {"measurement": "Fractional Growth", "setting": "[15]", "result": 0.3998}, {"measurement": "Fractional Growth", "setting": "[16]", "result": 0.5818}, {"measurement": "Fractional Growth", "setting": "[17]", "result": 0.8297}, {"measurement": "Fractional Growth", "setting": "[18]", "result": 0.5886}, {"measurement": "Fractional Growth", "setting": "[19]", "result": 0.6482}, {"measurement": "Fractional Growth", "setting": "[20]", "result": 0.4627}, {"measurement": "Fractional Growth", "setting": "[21]", "result": 0.6294}, {"measurement": "Fractional Growth", "setting": "[22]", "result": 0.617}, {"measurement": "Fractional Growth", "setting": "[23]", "result": 0.4067}, {"measurement": "Fractional Growth", "setting": "[24]", "result": 0.5502}, {"measurement": "Fractional Growth", "setting": "[25]", "result": 0.635}, {"measurement": "Fractional Growth", "setting": "[26]", "result": 0.4571}, {"measurement": "Fractional Growth", "setting": "[27]", "result": 0.4083}, {"measurement": "Fractional Growth", "setting": "[28]", "result": 0.3713}, {"measurement": "Fractional Growth", "setting": "[29]", "result": 0.6309}, {"measurement": "Fractional Growth", "setting": "[30]", "result": 0.3116}, {"measurement": "Fractional Growth", "setting": "[31]", "result": 0.4229}, {"measurement": "Fractional Growth", "setting": "[32]", "result": 0.6543}, {"measurement": "Fractional Growth", "setting": "[33]", "result": 0.2341}, {"measurement": "Fractional Growth", "setting": "[34]", "result": 0.1771}, {"measurement": "Fractional Growth", "setting": "[35]", "result": 0.2641}, {"measurement": "Fractional Growth", "setting": "[36]", "result": 0.4543}, {"measurement": "Fractional Growth", "setting": "[37]", "result": 0.4628}]}
